Legend:
[1] = tested on: transgenic wild type (WT) and GPR119 knock-out (KO) mice; assay: Oral glucose tolerance in wild type and GPR119 knockout mice; type: in vivo; conditions: 2 g/kg dextrose oral 1 h after dosing
Experimental: Male transgenic wild type (WT) and GPR119 knock-out (KO) mice (Charles River Laboratories, USA), at an age of 12 weeks, were fasted overnight (approximately 15 hrs) then randomly grouped (n=8-10) to receive vehicle (0.5% HPMC/0.1% Tween80), a GPR119 agonist (30 mg/kg) or a positive control (10 mg/kg), the DPPIV inhibitor as described above. Vehicle or compounds were delivered orally by oral gavage at a volume of 10 mL/kg, and the tip of tail was nicked using a scalpel to allow whole blood glucose measurements. One hour after administration of vehicle or test compounds, dextrose was administered orally at 2 g/kg. Whole blood glucose levels were measured prior to, and 10, 20, 30, 45, 60, 90 and 120 min after the oral glucose load using a Glucometer (Freestyle, Therasense) from the tip of tail. At the end of the study the mice were sacrificed by cervical dislocation.
The glucose tolerance was calculated as the area under the glucose curve (AUC). Data is represented as box plots summarizing the distribution of data for each treatment group, as described above. Horizontal lines represent the mean data.

C57BL/6 male mice = assay: Effect of a GPR119 agonist on circulating GLP-1 and GIP in vivo in mice; conditions: fasted mice, 1, 3, 10, 30 or 60 mg/kg oral gavage, 60 min after dosing
Experimental: Ten weeks old C57BL/6 male mice (Taconic Farms, USA) were fasted overnight then randomly distributed into 6 treatment groups (n=10 mice per treatment group) receiving either vehicle (0.5% HPMC/0.1% Tween80), or a GPR119 agonist (Example 1) at five different doses (1, 3, 10, 30 or 60 mg/kg) by oral gavage. All animals were dosed with a volume of 10 mL/kg of their designated treatment. Sixty minutes after the oral gavage the mice were anesthetized using isofluorane for collection of blood samples by cardiac puncture. All mice were euthanized by cervical dislocation immediately following the cardiac puncture. […] Total GLP-1 levels were determined using a MULTI-ARRAY® electrochemoluminescence assay from Meso Scale Discovery (Cat #K110-FAC-2; Gaithersburg, Md.). Total GIP levels were determined using an ELISA assay (Cat# EZRMGIP-55K, Linco Diagnostic Services, St Charles, Mo.).
Data is represented as box plots summarizing the distribution of individual data point for each treatment group. […] FIG. 1 and FIG. 2 show total GLP-1 and total GIP respectively measured in circulation following administration of vehicle or a GPR119 agonist (Example 1) at doses as indicated.

Male Wistar rats = assay: Glucose stimulated insulin secretion in rats, hyperglycemic clamp; type: in vivo
Experimental: Male Wistar rats (Taconic farms, USA), weighing 300-350 gram, had catheters surgically implanted into the jugular and femoral veins and allowed to recover for one week following the surgery. On the day before the experiment, food was removed in the afternoon for an overnight fast. The following morning animals were randomly assigned to three treatment groups, vehicle (n=19) and either 1 mg/kg (n=8) or 10 mg/kg (n=8) of a GPR119 agonist (Example 1), and baseline blood samples were collected from the jugular vein. Animals were then administered either vehicle or Example 1 by oral gavage. A second blood sample was collected approximately 90 minutes after the oral gavage immediately prior to starting the hyperglycemic clamp. The clamp was initiated by infusing an empirically determined glucose bolus over 15-30 seconds into the femoral vein, followed by a variable rate glucose infusion adjusted to achieve a stable plasma glucose level of 190-210 mg/dl. After infusion of the glucose bolus, blood samples were collected every 5 minutes for glucose measurements. Samples for C-peptide level were collected a 2, 5, 10, 15, 20, 25, 30, 46, 60, 90 and 120 minutes during the hyperglycemic clamp. C-peptide was measured as a surrogate for insulin as it is co-secreted with insulin in equimolar amount with lower hepatic clearance, thus a better reflection of insulin secretion from the pancreatic β-cells. All blood samples were placed in individual tubes containing a gel clot activator (Cat # T-MG, Terumo Medial Corporation, Elkton, Md.) and allowed to clot in room temperature for 20 min before centrifugation and collection of serum. Glucose levels were measured using an Olympus AU640 analyzer (Olympus America Inc, Melville, N.Y.), and C-peptide levels by an RIA (Linco Diagnostic services, St Charles, Mo.). The rats were sacrificed at the end of the study by an overdose of Nembutal.
There was no difference in plasma glucose levels between treatment groups. […] The characteristic biphasic insulin secretion response (measured as an increase in C-peptide levels) elicited by the rapid increase in plasma glucose levels is shown in FIG. 13, with the first phase occurring within the first 5 minutes and the second phase from 15 minutes and beyond.

Male Sprague-Dawley rats = assay: Glucose stimulated insulin secretion and glucose disposal in rats, intravenous glucose tolerance test; type: in vivo; conditions: 10 mg/kg oral, 0.5 g/kg dextrose i.v. 90 min after dosing, vs vehicle
Experimental: Male Sprague-Dawley rats (Charles River Laboratories, USA) had catheters surgically implanted into the jugular vein and allowed to recover for one week. On the day of the experiment, food was removed in the morning and animals were randomly assigned to two treatment groups, vehicle (n=8) or GPR119 agonist (Example 1; n=9). In the afternoon, baseline blood samples were collected prior to, and 90 minutes following oral administration of either vehicle (0.5% HPMC/0.1% Tween80) or 10 mg/kg Example 1. The intravenous glucose tolerance test was initiated immediately after the 90 minute blood sample by intravenous infusion of 0.5 g/kg dextrose over 15-30 seconds into the jugular vein, Blood samples were collected from the jugular vein at 2, 5, 10, 15, and 30 min and treated as described for the hyperglycemic clamp. Serum was collected for analysis of glucose levels using an Olympus AU640 clinical chemistry analyzer (Olympus America Inc, Melville, N.Y.) and insulin levels by an electrochemoluminescence assay (Bioveris, Gaithersburg Md.). The rats were sacrificed at the end of the study by an overdose of Nembutal.
FIG. 14 and FIG. 15 show circulating plasma glucose and insulin concentrations at each time point throughout the intravenous glucose tolerance test. The data is represented as the average glucose and insulin levels±SEM for all animals in for the two treatment groups.

CC(C)OC(=O)N1CCC(Oc2ncnc3c2CCN3c2ccc(S(C)(=O)=O)cc2F)CC1 [Example 1, 1-Methylethyl 4-({7-[2-fluoro-4-(methylsulfonyl)phenyl]-6,7-dihydro-5H-pyrrolo[2,3-d]pyrimidin-4-yl}oxy)-1-piperidinecarboxylate]
glucose tolerance ([1]; GPR119 KO mice, 30 mg/kg oral): no effect
reduction of total glucose AUC ([1]; WT mice, Example 1 30 mg/kg, DPPIV inhibitor 10 mg/kg oral): 28%
circulating total GIP levels (C57BL/6 male mice): dose dependent increase
circulating total GLP-1 levels (C57BL/6 male mice): dose dependent increase
glucose infusion rates (GIR) required to sustain the hyperglycemic clamp (Male Wistar rats; 10 mg/kg oral, compared to 1 mg/kg or vehicle): required more exogenous glucose
C-peptide levels (surrogate for insulin secretion) (Male Wistar rats; 10 mg/kg oral, compared to vehicle or 1 mg/kg, throughout the hyperglycemic clamp): significantly increased
plasma glucose levels achieved during the hyperglycemic clamp (Male Wistar rats; 1 or 10 mg/kg oral vs vehicle, clamp started about 90 min after gavage): no difference
first (0-5 min) and second phase (15-90 min) glucose stimulated insulin secretory response (Male Wistar rats; hyperglycemic clamp): augments
area under the glucose curve (AUC) (Male Sprague-Dawley rats): significantly reduced
area under the insulin curve (Male Sprague-Dawley rats): significantly increased
peak (2 minute) insulin response (Male Sprague-Dawley rats): significantly increased
rate of glucose elimination (Male Sprague-Dawley rats): significantly increased

Reference: US8222261B2, “Chemical compounds” (GlaxoSmithKline, LLC, priority 2006, dated 2012)
